Source: US20110281179A1, “NON-AQUEOUS ELECTROLYTIC SOLUTION, AND LITHIUM BATTERY COMPRISING SAME” (UBE INDUSTRIES, LTD., priority 2008, published 2011)

Assay: pKa (acid dissociation constant)
Assay type: physicochemical
From the text: Here, the pKa value is also called an acid dissociation constant, and the pKa can be measured by an ordinary method. For example, the pKa can be determined in accordance with the method described in Experimental Chemistry Seminar 5 “Thermal Measurement and Equilibrium”, p. 460 (edited by the Chemical Society of Japan, published by Maruzen Company, Limited.).

Row | Structure (SMILES) | pKa
1 | Oc1ccc(F)c(F)c1F [2,3,4-Trifluorophenol] | 6
2 | Oc1c(F)c(F)cc(F)c1F [2,3,5,6-Tetrafluorophenol] | 5.5
3 | Oc1c(Cl)c(Cl)c(Cl)c(Cl)c1Cl [Pentachlorophenol] | 4.7

Other lines, results leading:

Row | pKa | Structure (SMILES)
4 | 8.4 | Oc1ccc(F)cc1F [2,4-Difluorophenol]
5 | 9.9 | Oc1ccc(F)cc1 [4-Fluorophenol]
